{"source": "patent US6258840A", "about": "“Analogues or derivatives of quercetin (prodrugs)” (Cobra Therapeutics Limited, priority 1996, dated 2001)", "key": {"[1]": {"assay": "Stability to Human Plasma (HPLC, 37° C.)", "type": "in vitro ADME", "conditions": "for half-life: 0.02 ml of 6.3 mg/ml prodrug solution added to 2.5 ml plasma", "method": "Freshly prepared plasma (2.5 ml) was incubated at 37° C. and 0.02 ml of a 6.3 mg/ml solution of the prodrug compound in water was added. Aliquots of plasma were taken for HPLC analysis at zero time and at intervals thereafter. Samples were quenched with chilled methanol, the resulting precipitate was centrifuged at 4° C. at 800 rpm for 5 minutes, and the supernatant was analysed by HPLC."}, "[2]": {"test_system": "calcium- and phospholipid dependent protein kinase (protein kinase C)", "conditions": "in vitro; cited from earlier work"}, "[3]": {"test_system": "calcium- and phospholipid dependent protein kinase (protein kinase C)", "conditions": "in vivo; cited from earlier work"}, "[4]": {"test_system": "antiproliferative activity of cis-diaminedichloroplatinum II (cis-DDP)", "conditions": "in vitro, with cis-DDP; cited from earlier work"}, "[5]": {"test_system": "antiproliferative activity of cis-diaminedichloroplatinum II (cis-DDP)", "conditions": "in vivo, with cis-DDP; cited from earlier work"}, "[6]": {"conditions": "pharmaceutically acceptable solvents; cited from earlier work"}}, "note": "Counter-ions that a name gives are not always drawn. Like-named read-outs stand apart in the source and are kept apart here.", "data": [{"compound": "3'/4'-((N-Carboxymethyl)carbamoyloxy)-3,4'(3'),5,7-tetrahydroxy-flavone, N-Methyl-D-glucamine salt", "values": [{"measurement": "pH of solution in water", "setting": "10 mg/ml solution in water", "result": "approximately 7"}, {"measurement": "period for which the solution is stable", "setting": "10 mg/ml solution in water, -20° C.", "result": "at least 12 weeks"}, {"measurement": "pH of solution in dextrose", "setting": "diluted into dextrose, final prodrug concentration 1 mg/ml", "result": "approximately 6"}]}, {"compound": "O=C(O)CNC(=O)Oc1cc(-c2oc3cc(O)cc(O)c3c(=O)c2O)ccc1O", "note": "[3' carbamate ester, 3'-((N-Carboxymethyl)carbamoyloxy)-3,4',5,7-tetrahydroxyflavone, N-Methyl-D-glucamine salt]", "values": [{"measurement": "conversion into Quercetin", "setting": "[1]", "result": "converted into Quercetin"}, {"measurement": "half-life", "setting": "[1]", "result": "~1", "unit": "h"}]}, {"compound": "O=C(O)CNC(=O)Oc1ccc(-c2oc3cc(O)cc(O)c3c(=O)c2O)cc1O", "note": "[4' carbamate ester]", "values": [{"measurement": "conversion into Quercetin", "setting": "[1]", "result": "converted into Quercetin"}, {"measurement": "half-life", "setting": "[1]", "result": "~1", "unit": "h"}]}, {"compound": "O=c1c(O)c(-c2ccc(O)c(O)c2)oc2cc(O)cc(O)c12", "note": "[Quercetin, 3,3',4',5,7-pentahydroxyflavone]", "values": [{"measurement": "inhibition of protein kinase C activity", "setting": "[2]", "result": "inhibit the activity"}, {"measurement": "inhibition of protein kinase C activity", "setting": "[3]", "result": "inhibit the activity"}, {"measurement": "enhancement of antiproliferative activity of cis-DDP", "setting": "[4]", "result": "synergistically enhances the antiproliferative activity"}, {"measurement": "enhancement of antiproliferative activity of cis-DDP", "setting": "[5]", "result": "synergistically enhances the antiproliferative activity"}, {"measurement": "solubility", "setting": "[6]", "result": "limited solubility"}]}]}
